US20240408086A1, “USE OF LUVADAXISTAT FOR THE TREATMENT OF COGNITIVE IMPAIRMENT” (TAKEDA PHARMACEUTICAL COMPANY LIMITED, priority 2021, published 2024)
Where two headings read alike, the source gives them in different places.

Tests used:
Rat = assay: Attention set-shifting task (ASST) (executive function); format: in vivo; parameters: key: a + sign means efficacious; a − sign means not efficacious; conditions: for Attention set-shifting task (ASST) (executive function): 14-Day Once Daily (QD); for ASST (executive function): Single Dose
Excerpt: (§1) In Table 1, a + sign means efficacious, a − sign means not efficacious, and an empty cell indicates a dose was not tested.

Mouse [1] = assay: Novel object recognition (cognition); format: in vivo; parameters: key: a + sign means efficacious; a − sign means not efficacious
Excerpt: as §1

Mouse [2] = assay: Eyeblink conditioning (ataxia and schizophrenia), 10-day QD; format: in vivo; parameters: key: a + sign means efficacious; a − sign means not efficacious; conditions: 10-Day Once Daily (QD)
Excerpt: as §1

Mouse [3] = assay: Poly I:C social interaction (acute); format: in vivo; parameters: key: a + sign means efficacious; a − sign means not efficacious; conditions: Single Dose
Excerpt: as §1

[4] = test system: patients with schizophrenia; assay: Phase 1b crossover study: eye-blink conditioning (EBC); format: in vivo, human
Excerpt: (§2) NCT03359785 was a randomized, double-blind, placebo-controlled cross-over Phase 1b clinical trial in schizophrenia patients at a single site to evaluate PD effects, safety, tolerability, and pharmacokinetics of multiple oral doses of Compound (I). The objective of the study was to assess pharmacodynamic (PD) biomarkers of Compound (I) on measures related to cerebellar circuitry function and NMDA pharmacology that are known to be affected in schizophrenia.
The primary endpoint was the average percentage of conditioned responses during the eye-blink conditioning (EBC) test at day 8 of each treatment period (FIG. 10). EBC was used to assess the impact of Compound (I) on cerebellar circuitry function. EBC is a highly conserved reflex that is dependent on cerebellar circuitry, with NMDA receptors playing a key role. EBC is impaired in patients with schizophrenia compared with healthy controls.
All endpoints were analyzed as change from baseline compared to placebo within the same subjects. Statistical comparisons were conducted with an ANOVA model, with treatment sequence, period, and treatment as fixed effects, and subject as a random effect. […]

[5] = test system: patients with schizophrenia; assay: Phase 1b crossover study: mismatch negativity (MMN) amplitude; format: in vivo, human
Excerpt: as §2
Evoked potentials in the electroencephalogram were also tested to assess the impact of multiple oral doses of Compound (I) on NMDA-sensitive physiological responses that are affected in schizophrenia. Specifically, mismatch negativity (MMN), auditory steady state response (ASSR), and P300 were measured at baseline and following 8 days of treatment in both periods.
MMN is an oddball event-related potential sensitive to NMDA-receptor pharmacology. MMN is an event related potential (ERP) evoked in response to unattended changes in background stimulation and is responsive to D-serine elevations. There is evidence of D-serine administration improving MMN in patients with schizophrenia. MMN reflects an automatic process of detecting a mismatch between a deviant stimulus and a sensory-memory trace (FIGS. 11A, 11B). Smaller amplitudes of MMN have been consistently identified in schizophrenia participants, with a large effect size compared with healthy controls. In this study, MMN amplitude was measured at Midline frontal electrode (Fz) of electroencephalogram [EEG].
All endpoints were analyzed as change from baseline compared to placebo within the same subjects. Statistical comparisons were conducted with an ANOVA model, with treatment sequence, period, and treatment as fixed effects, and subject as a random effect. As a supplementary analysis, an analysis of covariance model (ANCOVA) was applied to the primary endpoint with (period) baseline as a covariate, treatment sequence, period, treatment effect and baseline-by-treatment as fixed effects, and subject as a random effect.

[6] = test system: adult patients with persistent negative symptoms of schizophrenia
Procedure: Additionally, eligible participants were receiving stable antipsychotic treatment at a 2-6 mg daily dose of risperidone equivalents, and were allowed to be treated with a second antipsychotic if it was used as a hypnotic at a subtherapeutic dose (subject to sponsor approval). […] To overcome potential confounding effects, those with depressive and extrapyramidal symptoms were excluded.
Dose selection for this study was based on target occupancy and elevation of D-serine.
The study comprised a 28-day screening period, a 14-day single-blinded placebo run-in period to prospectively evaluate drug adherence and BNSS score stability, and a 12-week double-blinded treatment period (FIG. 5). […] Demographics, baseline characteristics, and efficacy assessments were based on the full analysis set, which included randomized participants who received at least one dose of the study drug during the treatment period (Table 6). The safety analysis set included randomized participants who received at least one dose of the study drug.
Safety endpoints included assessment of treatment-emergent adverse events (TEAEs).

[7] = 50 mg once daily, count (%) of N = 58
[8] = 125 mg once daily, count (%) of N = 56
[9] = 500 mg once daily, count (%) of N = 55

O=c1[nH]nc(CCc2ccc(C(F)(F)F)cc2)cc1O [Compound (I), luvadaxistat]
Attention set-shifting task (ASST) (executive function) (Rat; 0.1 mg/kg): + | Attention set-shifting task (ASST) (executive function) (Rat; 1 mg/kg): + | Attention set-shifting task (ASST) (executive function) (Rat; 10 mg/kg): + | ASST (executive function) (Rat; 3 mg/kg): + | ASST (executive function) (Rat; 10 mg/kg): + | ASST (executive function) (Rat; 30 mg/kg): + | Novel object recognition (cognition) (Mouse [1]; 14-Day Once Daily (QD), 0.001 mg/kg): − | Novel object recognition (cognition) (Mouse [1]; 14-Day Once Daily (QD), 0.003 mg/kg): + | Novel object recognition (cognition) (Mouse [1]; 14-Day Once Daily (QD), 0.01 mg/kg): + | Novel object recognition (cognition) (Mouse [1]; 14-Day Once Daily (QD), 0.03 mg/kg): + | Novel object recognition (cognition) (Mouse [1]; 14-Day Once Daily (QD), 0.1 mg/kg): + | Novel object recognition (cognition) (Mouse [1]; 14-Day Once Daily (QD), 0.3 mg/kg): − | Novel object recognition (cognition) (Mouse [1]; 14-Day Once Daily (QD), 1 mg/kg): − | Novel object recognition (cognition) (Mouse [1]; 14-Day Once Daily (QD), 3 mg/kg): − | Novel object recognition (cognition) (Mouse [1]; Single Dose, 0.1 mg/kg): − | Novel object recognition (cognition) (Mouse [1]; Single Dose, 0.3 mg/kg): + | Novel object recognition (cognition) (Mouse [1]; Single Dose, 1 mg/kg): + | Novel object recognition (cognition) (Mouse [1]; Single Dose, 3 mg/kg): + | Novel object recognition (cognition) (Mouse [1]; Single Dose, 10 mg/kg): + | Eyeblink conditioning (ataxia and schizophrenia) (Mouse [2]; 0.1 mg/kg): + | Eyeblink conditioning (ataxia and schizophrenia) (Mouse [2]; 1 mg/kg): + | Poly I:C social interaction (acute) (Mouse [3]; 0.3 mg/kg): − | Poly I:C social interaction (acute) (Mouse [3]; 1 mg/kg): − | Poly I:C social interaction (acute) (Mouse [3]; 3 mg/kg): + | EBC change from baseline, effect size vs placebo (ANCOVA) ([4]; 50 mg for 8 days, p=0.109): 0.246 | EBC change from baseline, effect size vs placebo (ANCOVA) ([4]; 500 mg for 8 days, p=0.777): −0.198 | MMN amplitude, effect size vs placebo ([5]; 50 mg for 8 days): −0.691 | MMN amplitude, LS means change from baseline ([5]; 50 mg for 8 days, placebo 0.669, p=0.0497): −0.239 | MMN amplitude, effect size vs placebo ([5]; 500 mg for 8 days): 0.389 | MMN amplitude, LS means change from baseline ([5]; 500 mg for 8 days, placebo −0.154, p=0.8517): 0.594 | Frequent TEAEs: Headache [6, 7]: 0 | Frequent TEAEs: Increased weight [6, 7]: 2 (3.4) | Frequent TEAEs: Insomnia [6, 7]: 0 | Patients with Mild TEAEs [6, 7]: 10 (17.2) | Patients with Moderate TEAEs [6, 7]: 2 (3.4) | Patients with Severe TEAEs [6, 7]: 1 (1.7) | Patients with any TEAEs [6, 7]: 13 (22.4) | Serious adverse events [6, 7]: 0 | TEAEs leading to study discontinuation [6, 7]: 0 | TEAEs related to study drug [6, 7]: 0 | Deaths ([6]; 50 mg once daily, count of N = 58): 0 | Severe event of chronic cholecystitis, number of participants ([6]; 50 mg once daily, not considered drug related): 1 | Severe schizophrenia (drug-related serious TEAE), number of participants ([6]; 125 mg once daily): one | Frequent TEAEs: Headache [6, 8]: 5 (8.9) | Frequent TEAEs: Increased weight [6, 8]: 0 | Frequent TEAEs: Insomnia [6, 8]: 2 (3.6) | Patients with Mild TEAEs [6, 8]: 13 (23.2) | Patients with Moderate TEAEs [6, 8]: 3 (5.4) | Patients with Severe TEAEs [6, 8]: 1 (1.8) | Patients with any TEAEs [6, 8]: 17 (30.4) | Serious adverse events [6, 8]: 1 (1.8) | TEAEs leading to study discontinuation [6, 8]: 1 (1.8) | TEAEs related to study drug [6, 8]: 4 (7.1) | Deaths ([6]; 125 mg once daily, count of N = 56): 0 | Frequent TEAEs: Headache [6, 9]: 2 (3.6) | Frequent TEAEs: Increased weight [6, 9]: 0 | Frequent TEAEs: Insomnia [6, 9]: 2 (3.6) | Patients with Mild TEAEs [6, 9]: 8 (14.5) | Patients with Moderate TEAEs [6, 9]: 8 (14.5) | Patients with Severe TEAEs [6, 9]: 0 | Patients with any TEAEs [6, 9]: 16 (29.1) | Serious adverse events [6, 9]: 0 | TEAEs leading to study discontinuation [6, 9]: 1 (1.8) | TEAEs related to study drug [6, 9]: 7 (12.7) | Deaths ([6]; 500 mg once daily, count of N = 55): 0
